Values quoted from earlier work as cited in patent publication EP0313535B1 (Bristol-Myers Squibb Company, priority 1987, dated 1989).
One block for each compound: values may come before it.

Columns and labels:
[1] = metabolite of buspirone

Structure (SMILES): O=C1CC2(CCCC2)CC(=O)N1CCCCN1CCN(c2ncc(O)cn2)CC1 [5-OH-buspirone]
pharmacological activity [1]: no pharmacological activity

Structure (SMILES): c1cnc(N2CCNCC2)nc1 [Example 1-PP, 1-(2-pyrimidinyl)-piperazine]
activity relative to buspirone per se [1]: 20-25%

biological half life (in man (Mayol et al. 1985)): 2-11 hours
variation of the maximum plasma concentration (interindividual (Gammans et al. 1986)): up to 10 fold
Structure (SMILES): O=C1CC2(CCCC2)CC(=O)N1CCCCN1CCN(c2ncccn2)CC1 [buspirone, Buspirone]
